Key:
[1] = species: Rattus norvegicus; assay: Compound was evaluated for the measurement of Cerebral blood flow in piriform cortex of Rats (normocapnia); assay type: functional
[2] = species: Rattus norvegicus; assay: Compound was evaluated for the measurement of Cerebral blood flow in superior coliculus of Rats (hypercapnia); assay type: functional, Brain
[3] = species: Rattus norvegicus; assay: Compound was evaluated for the measurement of Cerebral blood flow in visual cortex of Rats (hypercapnia); assay type: functional
[4] = species: Rattus norvegicus; assay: Compound was evaluated for the measurement of Cerebral blood flow in auditory cortex of Rats (hypercapnia); assay type: functional
[5] = species: Rattus norvegicus; assay: Compound was evaluated for the measurement of Cerebral blood flow in substantia nigra of Rats (normocapnia); assay type: functional
[6] = species: Rattus norvegicus; assay: Compound was evaluated for the measurement of Cerebral blood flow in medial geniculate body of Rats (hypercapnia); assay type: functional
[7] = species: Rattus norvegicus; assay: Compound was evaluated for the measurement of Cerebral blood flow in nucleus ruber of Rats (normocapnia); assay type: functional, Brain
[8] = species: Rattus norvegicus; assay: Compound was evaluated for the measurement of Cerebral blood flow in hippocampus cortex of Rats (normocapnia); assay type: functional
[9] = species: Rattus norvegicus; assay: Compound was evaluated for the measurement of Cerebral blood flow in auditory cortex of Rats (normocapnia); assay type: functional
[10] = species: Rattus norvegicus; assay: Compound was evaluated for the measurement of Cerebral blood flow in cerebellum of Rats (hypercapnia); assay type: functional
[11] = species: Rattus norvegicus; assay: Compound was evaluated for the measurement of Cerebral blood flow in visual cortex of Rats (normocapnia); assay type: functional
[12] = species: Rattus norvegicus; assay: Compound was evaluated for the measurement of Cerebral blood flow in septal nucleus of Rats (hypercapnia); assay type: functional, Brain
[13] = species: Rattus norvegicus; assay: Compound was evaluated for the measurement of Cerebral blood flow in nucleus ruber of Rats (hypercapnia); assay type: functional, Brain
[14] = species: Rattus norvegicus; assay: Compound was evaluated for the measurement of Cerebral blood flow in caudoputamen of Rats ((hypercapnia); assay type: functional, Brain
[15] = species: Rattus norvegicus; assay: Compound was evaluated for the measurement of Cerebral blood flow in habenula of Rats (hypercapnia); assay type: functional
[16] = species: Rattus norvegicus; assay: Compound was evaluated for the measurement of Cerebral blood flow in sensorimotor cortex of Rats (hypercapnia); assay type: functional, Brain
[17] = species: Rattus norvegicus; assay: Compound was evaluated for the measurement of Cerebral blood flow in frontal cortex of Rats (normocapnia); assay type: functional
[18] = species: Rattus norvegicus; assay: Compound was evaluated for the measurement of Cerebral blood flow in piriform cortex of Rats (hypercapnia); assay type: functional
[19] = species: Rattus norvegicus; assay: Compound was evaluated for the measurement of Cerebral blood flow in thalamus of Rats (normocapnia); assay type: functional
[20] = species: Rattus norvegicus; assay: Compound was evaluated for the measurement of Cerebral blood flow in cingulate cortex of Rats (hypercapnia); assay type: functional, Brain
[21] = species: Rattus norvegicus; assay: Compound was evaluated for the measurement of Cerebral blood flow in habenula of Rats (normocapnia); assay type: functional
[22] = species: Rattus norvegicus; assay: Compound was evaluated for the measurement of Cerebral blood flow in globus pallidus of Rats (hypercapnia); assay type: functional
[23] = species: Rattus norvegicus; assay: Compound was evaluated for the measurement of Cerebral blood flow in substantia nigra of Rats (hypercapnia); assay type: functional
[24] = species: Rattus norvegicus; assay: Compound was evaluated for the measurement of Cerebral blood flow in cingulate cortex of Rats (normocapnia); assay type: functional, Brain
[25] = species: Rattus norvegicus; assay: Compound was evaluated for the measurement of Cerebral blood flow in septal nucleus of Rats (normocapnia); assay type: functional, Brain
[26] = species: Rattus norvegicus; assay: Compound was evaluated for the measurement of Cerebral blood flow in thalamus of Rats (hypercapnia); assay type: functional
[27] = species: Rattus norvegicus; assay: Compound was evaluated for the measurement of Cerebral blood flow in hypothalamus of Rats (hypercapnia); assay type: functional
[28] = species: Rattus norvegicus; assay: Compound was evaluated for the measurement of Cerebral blood flow in lateral geniculate body of Rats (hypercapnia); assay type: functional
[29] = species: Rattus norvegicus; assay: Compound was evaluated for the measurement of Cerebral blood flow in lateral geniculate body of Rats (normocapnia); assay type: functional
[30] = species: Rattus norvegicus; assay: Compound was evaluated for the measurement of Cerebral blood flow in superior coliculus of Rats (normocapnia); assay type: functional, Brain
[31] = species: Rattus norvegicus; assay: Compound was evaluated for the measurement of Cerebral blood flow in amygdala of Rats (normocapnia); assay type: functional
[32] = species: Rattus norvegicus; assay: Compound was evaluated for the measurement of Cerebral blood flow in sensorimotor cortex of Rats (normocapnia); assay type: functional, Brain
[33] = species: Rattus norvegicus; assay: Compound was evaluated for the measurement of Cerebral blood flow in nucleus accumbens of Rats (normocapnia); assay type: functional, Brain
[34] = species: Rattus norvegicus; assay: Compound was evaluated for the measurement of Cerebral blood flow in medial geniculate body of Rats (normocapnia); assay type: functional
[35] = species: Rattus norvegicus; assay: Compound was evaluated for the measurement of Cerebral blood flow in inferior coliculus of Rats (normocapnia); assay type: functional, Brain
[36] = species: Rattus norvegicus; assay: Compound was evaluated for the measurement of Cerebral blood flow in amygdala of Rats (hypercapnia); assay type: functional
[37] = species: Rattus norvegicus; assay: Compound was evaluated for the measurement of Cerebral blood flow in hippocampus cortex of Rats (hypercapnia); assay type: functional
[38] = species: Rattus norvegicus; assay: Compound was evaluated for the measurement of Cerebral blood flow in frontal cortex of Rats (hypercapnia); assay type: functional
[39] = species: Rattus norvegicus; assay: Compound was evaluated for the measurement of Cerebral blood flow in parietal cortex of Rats (hypercapnia); assay type: functional
[40] = species: Rattus norvegicus; assay: Compound was evaluated for the measurement of Cerebral blood flow in globus pallidus of Rats (normocapnia); assay type: functional
[41] = species: Rattus norvegicus; assay: Compound was evaluated for the measurement of Cerebral blood flow in cerebellum of Rats (normocapnia); assay type: functional
[42] = species: Rattus norvegicus; assay: Compound was evaluated for the measurement of Cerebral blood flow in inferior coliculus of Rats (hypercapnia); assay type: functional, Brain
[43] = species: Rattus norvegicus; assay: Compound was evaluated for the measurement of Cerebral blood flow in nucleus accumbens of Rats (hypercapnia); assay type: functional, Brain
[44] = species: Rattus norvegicus; assay: Compound was evaluated for the measurement of Cerebral blood flow in caudoputamen of Rats (normocapnia); assay type: functional, Brain
[45] = species: Rattus norvegicus; assay: Compound was evaluated for the measurement of Cerebral blood flow in parietal cortex of Rats (normocapnia); assay type: functional
[46] = species: Rattus norvegicus; assay: Compound was evaluated for the measurement of Cerebral blood flow in hypothalamus of Rats (normocapnia); assay type: functional

SMILES: Cc1c(I)c(=O)n(-c2ccccc2)n1C [IODOANTIPYRINE]
- Blood flow [1]: 1.12 100ml g-1 min-1
- Blood flow [2]: 3.78 100ml g-1 min-1
- Blood flow [3]: 4.08 100ml g-1 min-1
- Blood flow [4]: 5.79 100ml g-1 min-1
- Blood flow [5]: 1.01 100ml g-1 min-1
- Blood flow [6]: 5.18 100ml g-1 min-1
- Blood flow [7]: 1.45 100ml g-1 min-1
- Blood flow [8]: 0.87 100ml g-1 min-1
- Blood flow [9]: 3.12 100ml g-1 min-1
- Blood flow [10]: 2.7 100ml g-1 min-1
- Blood flow [11]: 1.52 100ml g-1 min-1
- Blood flow [12]: 3.21 100ml g-1 min-1
- Blood flow [13]: 3.49 100ml g-1 min-1
- Blood flow [14]: 3.77 100ml g-1 min-1
- Blood flow [15]: 5.23 100ml g-1 min-1
- Blood flow [16]: 5.75 100ml g-1 min-1
- Blood flow [17]: 2.03 100ml g-1 min-1
- Blood flow [18]: 3.11 100ml g-1 min-1
- Blood flow [19]: 1.63 100ml g-1 min-1
- Blood flow [20]: 3.9 100ml g-1 min-1
- Blood flow [21]: 1.64 100ml g-1 min-1
- Blood flow [22]: 2.61 100ml g-1 min-1
- Blood flow [23]: 3.21 100ml g-1 min-1
- Blood flow [24]: 1.33 100ml g-1 min-1
- Blood flow [25]: 0.85 100ml g-1 min-1
- Blood flow [26]: 4.77 100ml g-1 min-1
- Blood flow [27]: 3.14 100ml g-1 min-1
- Blood flow [28]: 3.97 100ml g-1 min-1
- Blood flow [29]: 1.4 100ml g-1 min-1
- Blood flow [30]: 1.48 100ml g-1 min-1
- Blood flow [31]: 1.06 100ml g-1 min-1
- Blood flow [32]: 1.98 100ml g-1 min-1
- Blood flow [33]: 1.5 100ml g-1 min-1
- Blood flow [34]: 1.82 100ml g-1 min-1
- Blood flow [35]: 1.99 100ml g-1 min-1
- Blood flow [36]: 3.09 100ml g-1 min-1
- Blood flow [37]: 2.84 100ml g-1 min-1
- Blood flow [38]: 4.67 100ml g-1 min-1
- Blood flow [39]: 5.5 100ml g-1 min-1
- Blood flow [40]: 0.66 100ml g-1 min-1
- Blood flow [41]: 0.82 100ml g-1 min-1
- Blood flow [42]: 4.76 100ml g-1 min-1
- Blood flow [43]: 4.18 100ml g-1 min-1
- Blood flow [44]: 1.41 100ml g-1 min-1
- Blood flow [45]: 1.89 100ml g-1 min-1
- Blood flow [46]: 1.05 100ml g-1 min-1

SMILES: Cc1c(C(C)C)c(=O)n(-c2ccccc2)n1C [PROPYPHENAZONE]
- Blood flow [1]: 1.05 100ml g-1 min-1
- Blood flow [2]: 4.66 100ml g-1 min-1
- Blood flow [3]: 4.97 100ml g-1 min-1
- Blood flow [4]: 5.66 100ml g-1 min-1
- Blood flow [5]: 1 100ml g-1 min-1
- Blood flow [6]: 6.94 100ml g-1 min-1
- Blood flow [7]: 1.36 100ml g-1 min-1
- Blood flow [8]: 0.87 100ml g-1 min-1
- Blood flow [9]: 2.36 100ml g-1 min-1
- Blood flow [10]: 1.98 100ml g-1 min-1
- Blood flow [11]: 1.3 100ml g-1 min-1
- Blood flow [12]: 3.34 100ml g-1 min-1
- Blood flow [13]: 4.91 100ml g-1 min-1
- Blood flow [14]: 4.18 100ml g-1 min-1
- Blood flow [15]: 5.29 100ml g-1 min-1
- Blood flow [16]: 7.24 100ml g-1 min-1
- Blood flow [17]: 2.26 100ml g-1 min-1
- Blood flow [18]: 3.56 100ml g-1 min-1
- Blood flow [19]: 1.73 100ml g-1 min-1
- Blood flow [20]: 3.45 100ml g-1 min-1
- Blood flow [21]: 1.43 100ml g-1 min-1
- Blood flow [22]: 2.85 100ml g-1 min-1
- Blood flow [23]: 3.9 100ml g-1 min-1
- Blood flow [24]: 1.34 100ml g-1 min-1
- Blood flow [25]: 0.91 100ml g-1 min-1
- Blood flow [26]: 6.84 100ml g-1 min-1
- Blood flow [27]: 3.63 100ml g-1 min-1
- Blood flow [28]: 5.46 100ml g-1 min-1
- Blood flow [29]: 1.45 100ml g-1 min-1
- Blood flow [30]: 1.49 100ml g-1 min-1
- Blood flow [31]: 0.95 100ml g-1 min-1
- Blood flow [32]: 1.91 100ml g-1 min-1
- Blood flow [33]: 1.45 100ml g-1 min-1
- Blood flow [34]: 2.18 100ml g-1 min-1
- Blood flow [35]: 1.99 100ml g-1 min-1
- Blood flow [36]: 3.65 100ml g-1 min-1
- Blood flow [37]: 2.77 100ml g-1 min-1
- Blood flow [38]: 5.34 100ml g-1 min-1
- Blood flow [39]: 6.95 100ml g-1 min-1
- Blood flow [40]: 0.73 100ml g-1 min-1
- Blood flow [41]: 0.83 100ml g-1 min-1
- Blood flow [42]: 5.3 100ml g-1 min-1
- Blood flow [43]: 5.49 100ml g-1 min-1
- Blood flow [44]: 1.35 100ml g-1 min-1
- Blood flow [45]: 1.89 100ml g-1 min-1
- Blood flow [46]: 0.97 100ml g-1 min-1
